One may read the EC50 as the concentration giving half of the maximal effect.

Where only a bound is given, the exact number is not on record here.

In this assay the target is T1, human α7 nAChR (Homo sapiens, UniProt P36544).
T1 construct: host or cells: GH4C1 cells (pituitary tumor, immortalized cell line)
The assay is described as follows: α7 nAChR FLIPR (Fluorometric Imaging Plate Reader) Ca2+ assay, agonist EC50. The format is cell-based. The settings on record: GH4C1 cells stably transfected with human α7 nAChR; Fluo-4 Ca2+ fluorescence; Examples 194 to 205 tested as the HCl salt; read-out: pEC50 value (negative logarithm of the agonist EC50) (converted). The gist of the method:
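GH4C1 cells stably expressing human α7 nAChR, loaded with 2 μM Fluo-4 for 45–60 min at 37 °C in HEPES buffer pH 7.3 with 2 mM CaCl2 and 2.5 mM probenecid. Peak calcium fluorescence (ex 488, em 510–580 nm) after compound addition fitted for agonist EC50, reported as pEC50.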

T1 sequence (P36544 23-502): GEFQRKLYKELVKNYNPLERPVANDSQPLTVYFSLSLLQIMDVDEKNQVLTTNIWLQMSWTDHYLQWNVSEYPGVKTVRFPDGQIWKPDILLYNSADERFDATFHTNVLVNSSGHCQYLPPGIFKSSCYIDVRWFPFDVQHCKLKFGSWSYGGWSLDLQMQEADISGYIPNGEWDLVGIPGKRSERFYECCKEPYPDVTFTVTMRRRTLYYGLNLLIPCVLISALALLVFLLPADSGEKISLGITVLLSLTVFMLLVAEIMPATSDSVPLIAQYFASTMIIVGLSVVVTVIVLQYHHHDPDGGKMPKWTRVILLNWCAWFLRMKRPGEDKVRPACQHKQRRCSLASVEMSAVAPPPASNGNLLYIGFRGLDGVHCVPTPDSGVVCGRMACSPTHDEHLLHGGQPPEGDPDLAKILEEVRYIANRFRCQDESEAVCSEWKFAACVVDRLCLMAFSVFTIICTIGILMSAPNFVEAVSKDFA

For `O=C(Nc1ccc(-c2nnc(NCCCN3CCN4CCC3CC4)o2)c(Cl)c1)c1ccccc1F` [Example 125, N-[3-chloro-4-(5-{[3-(1,4-diazabicyclo[3.2.2]non-4-yl)propyl]amino}-1,3,4-oxadiazol-2-yl)phenyl]-2-fluorobenzamide], the concentration for a half-maximal effect (EC50) is at most 100 nM.
For the compound `COc1cc(NC(=O)c2ccccc2F)ccc1-c1nnc(NCCCN2CCCC2)o1` [Example 126, 2-fluoro-N-[3-(methyloxy)-4-(5-{[3-(1-pyrrolidinyl)propyl]amino}-1,3,4-oxadiazol-2-yl)phenyl]benzamide], the concentration for a half-maximal effect (EC50) was at most 1000 nM.
`COc1cc(NC(=O)c2ccccc2F)ccc1-c1nnc(NCCCCN2CCCC2)o1` [Example 127, 2-fluoro-N-[3-(methyloxy)-4-(5-{[4-(1-pyrrolidinyl)butyl]amino}-1,3,4-oxadiazol-2-yl)phenyl]benzamide]: the EC50 is at most 100 nM.
As to `CC1(C)CCN(CCCNc2nnc(-c3ccc(NC(=O)c4ccccc4F)cc3)o2)CC1` [Example 135, N-[4-(5-{[3-(4,4-dimethyl-1-piperidinyl)propyl]amino}-1,3,4-oxadiazol-2-yl)phenyl]-2-fluorobenzamide], the EC50 is at most 1000 nM.
In the case of `CCC(C)N(C)CCCNc1nnc(-c2ccc(NC(=O)c3ccccc3F)cc2)o1` (stereo not shown) [Example 136, 2-fluoro-N-{4-[5-({3-[methyl(1-methylpropyl)amino]propyl}amino)-1,3,4-oxadiazol-2-yl]phenyl}benzamide], the EC50 was at most 1000 nM.
In the case of `CN(CCCNc1nnc(-c2ccc(NC(=O)c3ccccc3F)cc2)o1)C1CCCC1` [Example 137, N-{4-[5-({3-[cyclopentyl(methyl)amino]propyl}amino)-1,3,4-oxadiazol-2-yl]phenyl}-2-fluorobenzamide], the EC50 is at most 1000 nM.
Consider `COc1cc(NC(=O)c2ccccc2F)ccc1-c1nnc(NCCCCN2CCC(F)CC2)o1` [Example 145, 2-fluoro-N-[4-(5-{[4-(4-fluoro-1-piperidinyl)butyl]amino}-1,3,4-oxadiazol-2-yl)-3-(methyloxy)phenyl]benzamide], for which the EC50 was at most 100 nM.
In the case of `O=C(Nc1ccc(-c2nnc(NCCCN3CCCC3)o2)cc1)C1CCCCC1` [Example 146, N-[4-(5-{[3-(1-pyrrolidinyl)propyl]amino}-1,3,4-oxadiazol-2-yl)phenyl]cyclohexanecarboxamide], the EC50 was at most 1000 nM.
For `O=C(Nc1ccc(-c2nnc(NCCCCN3CCCC3)o2)cc1)C1CCCCC1` [Example 147, N-[4-(5-{[4-(1-pyrrolidinyl)butyl]amino}-1,3,4-oxadiazol-2-yl)phenyl]cyclohexanecarboxamide], the half-maximal effective concentration (EC50) was at most 100 nM.
As for `O=C(Nc1ccc(-c2nnc(NCCCCN3CCOCC3)o2)cc1)C1CCCCC1` [Example 148, N-[4-(5-{[4-(4-morpholinyl)butyl]amino}-1,3,4-oxadiazol-2-yl)phenyl]cyclohexanecarboxamide], the EC50 is at most 1000 nM.
As to `CCN(CC)CCCNc1nnc(-c2ccc(NC(=O)C3CCCCC3)cc2)o1` [Example 149, N-[4-(5-{[3-(diethylamino)propyl]amino}-1,3,4-oxadiazol-2-yl)phenyl]cyclohexanecarboxamide], the half-maximal effective concentration (EC50) is at most 1000 nM.
For `CCN(CC)CCCCNc1nnc(-c2ccc(NC(=O)C3CCCCC3)cc2)o1` [Example 150, N-[4-(5-{[4-(diethylamino)butyl]amino}-1,3,4-oxadiazol-2-yl)phenyl]cyclohexanecarboxamide], the EC50 was at most 1000 nM.
`O=C(Nc1ccc(-c2nnc(NCCCCN3CCCC3)o2)c(Cl)c1)c1ccccc1F` [Example 153, N-[3-chloro-4-(5-{[4-(1-pyrrolidinyl)butyl]amino}-1,3,4-oxadiazol-2-yl)phenyl]-2-fluorobenzamide]: the EC50 was at most 100 nM.
As for `O=C(Nc1ccc(-c2nnc(NCCCCN3CCOCC3)o2)c(Cl)c1)c1ccccc1F` [Example 154, N-[3-chloro-4-(5-{[4-(4-morpholinyl)butyl]amino}-1,3,4-oxadiazol-2-yl)phenyl]-2-fluorobenzamide], the EC50 is at most 100 nM.
`CCN(CC)CCCNc1nnc(-c2ccc(NC(=O)c3ccccc3F)cc2Cl)o1` [Example 155, N-[3-chloro-4-(5-{[3-(diethylamino)propyl]amino}-1,3,4-oxadiazol-2-yl)phenyl]-2-fluorobenzamide]: the 50% effective concentration (EC50) is at most 1000 nM.
In the case of `CCN(CC)CCCCNc1nnc(-c2ccc(NC(=O)c3ccccc3F)cc2Cl)o1` [Example 156, N-[3-chloro-4-(5-{[4-(diethylamino)butyl]amino}-1,3,4-oxadiazol-2-yl)phenyl]-2-fluorobenzamide], the concentration giving a half-maximal response (EC50) was at most 100 nM.
The same measure for `O=C(Nc1ccc(-c2nnc(NCCCN3CCCC3)o2)c(Cl)c1)C1CCCCC1` [Example 157, N-[3-chloro-4-(5-{[3-(1-pyrrolidinyl)propyl]amino}-1,3,4-oxadiazol-2-yl)phenyl]cyclohexanecarboxamide]: at most 1000 nM; for `O=C(Nc1ccc(-c2nnc(NCCCCN3CCCC3)o2)c(Cl)c1)C1CCCCC1` [Example 158, N-[3-chloro-4-(5-{[4-(1-pyrrolidinyl)butyl]amino}-1,3,4-oxadiazol-2-yl)phenyl]cyclohexanecarboxamide]: at most 100 nM.
Turning to `CCN(CC)CCCNc1nnc(-c2ccc(NC(=O)C3CCCCC3)cc2Cl)o1` [Example 159, N-[3-chloro-4-(5-{[3-(diethylamino)propyl]amino}-1,3,4-oxadiazol-2-yl)phenyl]cyclohexanecarboxamide], the EC50 is at most 1000 nM.
Consider `CCN(CC)CCCCNc1nnc(-c2ccc(NC(=O)C3CCCCC3)cc2Cl)o1` [Example 160, N-[3-chloro-4-(5-{[4-(diethylamino)butyl]amino}-1,3,4-oxadiazol-2-yl)phenyl]cyclohexanecarboxamide], for which the half-maximal effective concentration (EC50) was at most 1000 nM.
For the compound `O=C(Nc1ccc(-c2nnc(NCCCCN3CCOCC3)o2)c(Cl)c1)C1CCCCC1` [Example 161, N-[3-chloro-4-(5-{[4-(4-morpholinyl)butyl]amino}-1,3,4-oxadiazol-2-yl)phenyl]cyclohexanecarboxamide], the EC50 was at most 1000 nM.
Consider `O=C(Nc1ccc(-c2nnc(NCCCN3CCCCC3)o2)c(Cl)c1)C1CCCCC1` [Example 163, N-[3-chloro-4-(5-{[3-(1-piperidinyl)propyl]amino}-1,3,4-oxadiazol-2-yl)phenyl]cyclohexanecarboxamide], for which the EC50 was at most 1000 nM.
On to `O=C(Nc1ccc(-c2nnc(NCCCCN3CCCCC3)o2)c(Cl)c1)C1CCCCC1` [Example 164, N-[3-chloro-4-(5-{[4-(1-piperidinyl)butyl]amino}-1,3,4-oxadiazol-2-yl)phenyl]cyclohexanecarboxamide], for which the EC50 was at most 100 nM.
In the case of `O=C(Nc1ccc(-c2nnc(NCCCN3CCCC3)o2)c(Cl)c1)c1ccccc1F` [Example 165, N-[3-chloro-4-(5-{[3-(1-pyrrolidinyl)propyl]amino}-1,3,4-oxadiazol-2-yl)phenyl]-2-fluorobenzamide], the EC50 is at most 1000 nM.
As to `CCc1cc(NC(=O)c2ccccc2F)ccc1-c1nnc(NCCCN2CCOCC2)o1` [Example 167, N-[3-ethyl-4-(5-{[3-(4-morpholinyl)propyl]amino}-1,3,4-oxadiazol-2-yl)phenyl]-2-fluorobenzamide], the EC50 was at most 1000 nM.
On to `CCc1cc(NC(=O)c2ccccc2F)ccc1-c1nnc(NCCCCN2CCCCC2)o1` [Example 168, N-[3-ethyl-4-(5-{[4-(1-piperidinyl)butyl]amino}-1,3,4-oxadiazol-2-yl)phenyl]-2-fluorobenzamide], for which the EC50 is at most 1000 nM.
Regarding `CCc1cc(NC(=O)c2ccccc2F)ccc1-c1nnc(NCCCN2CCN3CCC2CC3)o1` [Example 169, N-[4-(5-{[3-(1,4-diazabicyclo[3.2.2]non-4-yl)propyl]amino}-1,3,4-oxadiazol-2-yl)-3-ethylphenyl]-2-fluorobenzamide], the half-maximal effective concentration (EC50) is at most 100 nM.
With `CCc1cc(NC(=O)c2ccccc2F)ccc1-c1nnc(NCCCCN2CCCC2)o1` [Example 170, N-[3-ethyl-4-(5-{[4-(1-pyrrolidinyl)butyl]amino}-1,3,4-oxadiazol-2-yl)phenyl]-2-fluorobenzamide], the concentration for a half-maximal effect (EC50) is at most 100 nM.
`CCc1cc(NC(=O)c2ccccc2F)ccc1-c1nnc(NCCCCN(CC)CC)o1` [Example 171, N-[4-(5-{[4-(diethylamino)butyl]amino}-1,3,4-oxadiazol-2-yl)-3-ethylphenyl]-2-fluorobenzamide]: the concentration for a half-maximal effect (EC50) was at most 100 nM.
As for `CCc1cc(NC(=O)c2ccccc2F)ccc1-c1nnc(NCCCCN2CCOCC2)o1` [Example 172, N-[3-ethyl-4-(5-{[4-(4-morpholinyl)butyl]amino}-1,3,4-oxadiazol-2-yl)phenyl]-2-fluorobenzamide], the concentration giving a half-maximal response (EC50) is at most 100 nM.
Consider `CN1CCCN(CCCNc2nnc(-c3ccc(NC(=O)c4ccccc4F)cc3)o2)CC1` [Example 174, 2-fluoro-N-[4-(5-{[3-(4-methylhexahydro-1H-1,4-diazepin-1-yl)propyl]amino}-1,3,4-oxadiazol-2-yl)phenyl]benzamide], for which the concentration for a half-maximal effect (EC50) was at most 1000 nM.
For `Cc1ccc(C(=O)Nc2ccc(-c3nnc(NCCCN4CCCCC4)o3)cc2)cc1` [Example 181, 4-methyl-N-[4-(5-{[3-(1-piperidinyl)propyl]amino}-1,3,4-oxadiazol-2-yl)phenyl]benzamide], the half-maximal effective concentration (EC50) was at most 1000 nM.
Regarding `Cc1cc(C(=O)Nc2ccc(-c3nnc(NCCCN4CCCCC4)o3)cc2)no1` [Example 183, 5-methyl-N-[4-(5-{[3-(1-piperidinyl)propyl]amino}-1,3,4-oxadiazol-2-yl)phenyl]-3-isoxazolecarboxamide], the concentration giving a half-maximal response (EC50) was at most 1000 nM.
Take `O=C(Nc1ccc(-c2nnc(NCCCN3CCCCC3)o2)cc1)c1ccco1` [Example 185, N-[4-(5-{[3-(1-piperidinyl)propyl]amino}-1,3,4-oxadiazol-2-yl)phenyl]-2-furancarboxamide]: the EC50 is at most 1000 nM.

The values are drawn from patent publication US20090105217A1, “2-PHENYL-5-AMINO-1,3,4-OXADIAZOLES AND THEIR USE AS NICOTINIC ACETYLCHOLINE RECEPTOR LIGANDS” (priority 2007, published 2009).
